Measured values taken from ChEMBL document CHEMBL5728311, “Benzyl phenyl ether derivative, preparation method therefor, and pharmaceutical composition and uses thereof” (2021).

Biological target: Programmed cell death protein 1/Programmed cell death 1 ligand 1 (Homo sapiens, UniProt Q15116+Q9NZQ7)
Assay: In Vitro Activity Assay: 1) Principle: PD-1 protein is with HIS tag, and PD-1 ligand PD-L1 is with hFc tag. Eu labeled anti-hFc antibody and XL665 labeled anti-HIS antibody are combined with the above two label proteins respectively. After laser excitation, energy can be transferred from donor Eu to receptor XL665, allowing XL665 to glow. […] Reagents should be dispensed in the following order. For 384-well white ELISA plate, 2 μl of diluent or target compound diluted with diluent was added to each well, and then 4 μl of PD-1 protein and 4 μl of PD-L1 protein were added per well, incubated for 15 min at room temperature; and 10 μl of a mixture of anti-Tag1-Eu3+ and anti-Tag2-XL665 was added per well and incubated for 1 h to 4 h at room temperature and the fluorescence signals at 665 nm and 620 nm were measured with an Envison instrument. HTRF rate=(665 nm/620 nm)[…]. 8-10 concentrations were detected for each compound and IC50 was calculated by Graphpad software.
Type: protein-complex assay

Sequence of Programmed cell death protein 1/Programmed cell death 1 ligand 1 (Q15116 whole entry): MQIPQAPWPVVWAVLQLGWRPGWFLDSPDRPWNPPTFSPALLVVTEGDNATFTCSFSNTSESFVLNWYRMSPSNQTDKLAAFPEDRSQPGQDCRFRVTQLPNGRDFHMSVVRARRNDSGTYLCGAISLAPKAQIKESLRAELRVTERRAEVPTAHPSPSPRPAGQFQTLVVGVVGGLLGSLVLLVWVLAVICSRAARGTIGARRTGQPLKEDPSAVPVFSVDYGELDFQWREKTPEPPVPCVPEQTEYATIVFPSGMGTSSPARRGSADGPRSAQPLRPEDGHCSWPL
Sequence of Programmed cell death protein 1/Programmed cell death 1 ligand 1 (Q9NZQ7 whole entry): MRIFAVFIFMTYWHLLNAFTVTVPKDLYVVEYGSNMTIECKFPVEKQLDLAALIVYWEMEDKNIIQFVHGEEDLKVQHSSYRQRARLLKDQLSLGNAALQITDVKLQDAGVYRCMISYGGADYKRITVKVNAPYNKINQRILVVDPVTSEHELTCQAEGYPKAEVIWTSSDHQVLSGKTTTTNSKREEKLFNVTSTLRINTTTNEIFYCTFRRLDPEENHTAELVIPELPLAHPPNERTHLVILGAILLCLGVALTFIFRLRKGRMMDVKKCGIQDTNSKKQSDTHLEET

SMILES	IC50 [nM]
N#Cc1cccc(COc2cc(OCc3cccc(-c4ccccc4)c3Br)ccc2CN2CCOCC2)c1	458
CS(=O)(=O)NCCNCc1ccc(OCc2cccc(-c3ccccc3)c2Br)cc1OCc1cccc(C#N)c1	979
N#Cc1cccc(COc2cc(OCc3cccc(-c4ccccc4)c3Br)c(Cl)cc2CNCCO)c1	5.29
